Reference: EP2954896A1, “Small molecule inhibitors of the E3 Ligase Skp2 in depression and other diseases” (Max-Planck-Gesellschaft zur Förderung der Wissenschaften …, priority 2014, dated 2015)

Key:
[1] = Forced swim test after acute antidepressant injection in Fkbp51+/+ and Fkbp51-/- mice; type: in vivo; settings: acute injection 10 mgkg-1
Procedure: The Fkbp51^-/- mouse line was previously generated (Touma C et al. (2011) Biol. Psychiatry 70: 928-936) and fully backcrossed to C57/BI6. […] Hippocampus and prefrontal cortex were extracted. […] Male mice (age 10-16 weeks) were injected intraperitoneally with a single dose of either AMI (10 mg kg^-1) or saline vehicle. […] Another subgroup (WT n=5, KO n=5) was sacrificed, and brain tissue and blood was sampled for analysis of drug concentrations. […] The inventors performed an additional forced swim test administering the antidepressant amitriptyline in FKBP51 WT and FKBP51 KO mice (Fig. 1 B).

autophagy markers = assay: Autophagy markers in protein extracts of hippocampus and prefrontal cortex after acute antidepressant injection; type: in vivo, mice; settings: 10 mgkg-1
Procedure: Western blot analysis was performed on eluates from ColPs or with protein extracts from cells or tissue. Protein extracts were obtained by lysing cells or tissue (prelysed as described in the paragraph before) in 62.5 mM Tris, 2% SDS and 10% sucrose, supplemented with protease (Sigma, P2714) and phosphatase (Roche, 04906837001) inhibitor cocktail. Samples were sonicated and heated at 95 °C for 5 min. Proteins were separated by SDS-PAGE and electro-transferred onto nitrocellulose membranes. Blots were placed in Tris-buffered saline, supplemented with 0.05% Tween (Sigma, P2287) and 5% non-fat milk for 1 h at room temperature and then incubated with primary antibody (diluted in TBS/0.05% Tween) overnight at 4 °C. The following primary antibodies were used: Beclin1 (1:1000, Cell Signaling, #3495), Atg12 (1:1000, Cell Signaling #2010), LC3B-I/II (1:1000, Cell Signaling, #2775), FLAG (1:7000, Rockland, 600-401-383), FKBP51 (1:1000, Bethyl, A301-430A), Akt (1:1000, Cell Signaling, #4691), pAkt (1:1000, Ser473, T308, 1:1000, Cell Signaling, #4058, #9275), Actin (1:5000, Santa Cruz Biotechnologies, sc-1616), Skp2, myc (Addgene, 19947), GFP (santa cruz biotechnologies, sc-8334), p27 (cell signaling technologies, 3686), pULK,(S757, cell signaling technologies, 6888) APP-CTF (sigma-aldrich, A8717), DNMT1 (1:1000, Imgenex, IMG-261A), phospho-DNMT1 (S154), (1:1000, Abnova, PAB4924), ptau (S622; Santa Cruz Biotechnologies, #sc-16938).
Subsequently, blots were washed and probed with the respective horseradish peroxidase- or fluorophore-conjugated secondary antibody for 1 h at room temperature. The immuno-reactive bands were visualized either using ECL detection reagent (Millipore, Billerica, MA, USA, WBKL0500) or directly by excitation of the respective fluorophore. Determination of the band intensities were performed with BioRad, ChemiDoc MP, or X-ray-films.
The Fkbp51^-/- mouse line was previously generated (Touma C et al. (2011) Biol. Psychiatry 70: 928-936) and fully backcrossed to C57/BI6. […] Hippocampus and prefrontal cortex were extracted.

[2] = Chronic PAR treatment after chronic social defeat stress: behavioral tests (open field, social avoidance, forced swim); type: in vivo; settings: FKBP51-deleted versus wild type mice
Source text: After cessation of the stressor, groups were subdivided into vehicle-treated and paroxetine-treated animals, resulting in 8 groups (n = 7-13 per group). The treatment phase lasted for three weeks. The behavioral tests took place during the last week of the paroxetine treatment. The CSDS paradigm lasted for 21 days. Briefly, the experimental mice were introduced into the home cage (45 cm x 25 cm) of a dominant resident mouse and defeated shortly after. When the defeat was achieved, the animals were separated by a wire mesh, preventing physical but allowing sensory contact for 24 h. Each day, stressed animals were defeated by another unfamiliar, dominant resident mouse in order to exclude a repeated encounter throughout the experiment. The daily defeat was performed between 11:00 and 16:00 h; varying starting times reduced the predictability of the stressor and therefore minimized a potential habituation effect. […] Both stress and control animals were handled daily during the stress procedure; body weight for all mice was assessed at the beginning of the experiment, after the cessation of the stress period, and on the day of killing. […] All tests were analyzed using an automated videotracking system (Anymaze 4.20, Stoelting, Wood Dale, IL). […] Time spent immobile (floating) and time spent struggling was scored by an experienced observer, blind to treatment or condition of the animals.

[3] = Fkbp51+/+ mice, hippocampus and prefrontal cortex

Fc1ccc([C@@H]2CCNC[C@H]2COc2ccc3c(c2)OCO3)cc1 [PAR, paroxetine]
time spent struggling, forced swim test ([1]; Fkbp51+/+ mice): increase in the time spent struggling | time floating (immobility), forced swim test ([1]; Fkbp51+/+ mice, versus vehicle): less time floating | effect on time floating (immobility), forced swim test ([1]; Fkbp51-/- mice): significantly less pronounced | effect on time spent struggling, forced swim test ([1]; Fkbp51-/- mice): significantly attenuated | level of Atg12 (autophagy markers; [3]): increased | level of Beclin1 (autophagy markers; [3]): increased | level of Vps34 (autophagy markers; [3]): increased | phosphorylation of the kinase Akt (pAktS473) (autophagy markers; [3]): evoked dephosphorylation | protein levels of autophagy markers and pAktS473 (autophagy markers; Fkbp51-/- mice, either brain region): no alterations | enhancing struggling and reducing floating, forced swim test [2]: significantly less effective
